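How tested: cells in 96-well plates exposed to compound for 48 hours at five concentrations. GI50 is the concentration that inhibits growth by half.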 The source made the active and inactive calls. Cut-off read from the data, not from the text of the source: active = GI50 up to about 1.1 µM and inactive = higher.
Key:
Assay in all cases: growth of human tumour cells (NCI), 48 h
[1] = test system: 786-0
[2] = test system: A498
[3] = test system: A549
[4] = test system: ACHN
[5] = test system: BT-549
[6] = test system: CAKI-1
[7] = test system: CCRF-CEM
[8] = test system: COLO 205
[9] = test system: DU-145
[10] = test system: EKVX
[11] = test system: HCC 2998
[12] = test system: HCT-116
[13] = test system: HCT-15
[14] = test system: HL-60
[15] = test system: HOP-92
[16] = test system: IGROV-1
[17] = test system: K562
[18] = test system: KM12
[19] = test system: LOX IMVI
[20] = test system: M14
[21] = test system: MCF7
[22] = test system: MDA-MB-231
[23] = test system: MDA-MB-435
[24] = test system: MDA-N
[25] = test system: MOLT-4
[26] = test system: Malme-3M
[27] = test system: NCI-H226
[28] = test system: NCI-H23
[29] = test system: NCI-H522
[30] = test system: NCI/ADR-RES
[31] = test system: OVCAR-3
[32] = test system: OVCAR-4
[33] = test system: OVCAR-5
[34] = test system: OVCAR-8
[35] = test system: PC-3
[36] = test system: RPMI-8226
[37] = test system: RXF 393
[38] = test system: SF-295
[39] = test system: SF-539
[40] = test system: SK-MEL-28
[41] = test system: SK-MEL-2
[42] = test system: SK-MEL-5
[43] = test system: SK-OV-3
[44] = test system: SN12C
[45] = test system: SNB-19
[46] = test system: SNB-75
[47] = test system: SR
[48] = test system: SW-620
[49] = test system: TK-10
[50] = test system: U-251
[51] = test system: UACC-257
[52] = test system: UACC-62
[53] = test system: UO-31
[54] = test system: HOP-62
[55] = test system: HT-29
[56] = test system: NCI-H460
[57] = test system: SF-268

In the case of `Cc1ccc(-c2c(C#N)c(S)n(NS(=O)(=O)c3ccc(C)cc3)c(=O)c2C#N)cc1`, the GI50 [1] is reported as 29 µM (inactive), the GI50 [2] is reported as 33.7 µM (inactive) and the GI50 [3] is reported as 39.2 µM (inactive). The GI50 [4] was 20.6 µM (inactive), the GI50 [5] was 16.6 µM (inactive) and the GI50 [6] was 28 µM (inactive). For the same molecule, the GI50 [7] was 8.02 µM (inactive), the GI50 [8] was 30 µM (inactive) and the GI50 [9] was 41.8 µM (inactive). The GI50 [10] was 23.6 µM (inactive), the GI50 [11] was 5.19 µM (inactive) and the GI50 [12] was 27 µM (inactive). The GI50 [13] was 20.2 µM, the GI50 [14] was 14.9 µM (inactive) and the GI50 [15] was 22.6 µM (inactive). For the same molecule, the GI50 [16] was 16.7 µM (inactive), the GI50 [17] was 35.8 µM (inactive) and the GI50 [18] was 18 µM (inactive). The GI50 [19] was 27.2 µM (inactive), the GI50 [20] was 31.3 µM (inactive) and the GI50 [21] was 31.6 µM (inactive). For the same molecule, the GI50 [22] was 29.6 µM (inactive), the GI50 [23] was 22.3 µM (inactive) and the GI50 [24] was 35.6 µM (inactive). The GI50 [25] was 24.2 µM (inactive), the GI50 [26] was 3.56 µM (inactive) and the GI50 [27] was 11.7 µM (inactive). For the same molecule, the GI50 [28] was 18.5 µM (inactive), the GI50 [29] was 19.1 µM (inactive) and the GI50 [30] was 32.8 µM (inactive). The GI50 [31] was 34.7 µM (inactive), the GI50 [32] was 15.5 µM (inactive) and the GI50 [33] was 27.4 µM (inactive). The GI50 [34] was 21 µM (inactive), the GI50 [35] was 22.8 µM (inactive) and the GI50 [36] was 24.7 µM (inactive). The GI50 [37] was 23.5 µM (inactive), the GI50 [38] was 23.1 µM (inactive) and the GI50 [39] was 20.3 µM (inactive). For the same molecule, the GI50 [40] was 22 µM (inactive), the GI50 [41] was 23.3 µM (inactive) and the GI50 [42] was 21 µM (inactive). For the same molecule, the GI50 [43] was 45 µM (inactive), the GI50 [44] was 31.5 µM (inactive) and the GI50 [45] was 21.6 µM (inactive). For the same molecule, the GI50 [46] was 14.3 µM (inactive), the GI50 [47] was 29.6 µM (inactive) and the GI50 [48] was 19.9 µM (inactive). The GI50 [49] was 19.8 µM (inactive), the GI50 [50] was 18.1 µM (inactive) and the GI50 [51] was 40 µM (inactive). The GI50 [52] was 28.5 µM (inactive) and the GI50 [53] was 17.5 µM (inactive).

In the case of `CC12CC(=O)C3C(C(=O)C1)C32C` (stereo not drawn), the GI50 [1] is reported as > 100 µM (inactive), the GI50 [2] is reported as > 100 µM (inactive) and the GI50 [3] is reported as > 100 µM (inactive). The GI50 [4] was > 100 µM (inactive), the GI50 [5] was > 100 µM (inactive) and the GI50 [6] was > 100 µM (inactive). For the same molecule, the GI50 [7] was > 100 µM (inactive), the GI50 [8] was > 100 µM (inactive) and the GI50 [9] was > 100 µM (inactive). The GI50 [10] was > 100 µM (inactive), the GI50 [11] was > 100 µM (inactive) and the GI50 [12] was > 100 µM (inactive). For the same molecule, the GI50 [13] was > 100 µM, the GI50 [54] was > 100 µM (inactive) and the GI50 [55] was > 100 µM (inactive). The GI50 [16] was > 100 µM (inactive), the GI50 [17] was > 100 µM (inactive) and the GI50 [18] was 0.488 µM (active). The GI50 [19] was > 100 µM (inactive), the GI50 [20] was > 100 µM (inactive) and the GI50 [21] was > 100 µM (inactive). For the same molecule, the GI50 [22] was > 100 µM (inactive), the GI50 [23] was > 100 µM (inactive) and the GI50 [24] was > 100 µM (inactive). The GI50 [25] was > 100 µM (inactive), the GI50 [26] was 20.5 µM (inactive) and the GI50 [27] was > 100 µM (inactive). The GI50 [28] was > 100 µM (inactive), the GI50 [56] was > 100 µM (inactive) and the GI50 [29] was > 100 µM (inactive). For the same molecule, the GI50 [30] was > 100 µM (inactive), the GI50 [31] was > 100 µM (inactive) and the GI50 [32] was > 100 µM (inactive). The GI50 [33] was > 100 µM (inactive), the GI50 [34] was > 100 µM (inactive) and the GI50 [35] was > 100 µM (inactive). The GI50 [36] was > 100 µM (inactive), the GI50 [37] was > 100 µM (inactive) and the GI50 [57] was > 100 µM (inactive). For the same molecule, the GI50 [38] was > 100 µM (inactive), the GI50 [39] was > 100 µM (inactive) and the GI50 [40] was > 100 µM (inactive). The GI50 [41] was > 100 µM (inactive), the GI50 [42] was > 100 µM (inactive) and the GI50 [43] was > 100 µM (inactive). For the same molecule, the GI50 [44] was > 100 µM (inactive), the GI50 [45] was > 100 µM (inactive) and the GI50 [46] was 45.3 µM (inactive). For the same molecule, the GI50 [47] was > 100 µM (inactive), the GI50 [48] was > 100 µM (inactive) and the GI50 [49] was > 100 µM (inactive). The GI50 [50] was > 100 µM (inactive), the GI50 [51] was > 100 µM (inactive) and the GI50 [52] was > 100 µM (inactive). For the same molecule, the GI50 [53] was > 100 µM (inactive).
